Columns and labels:
ECHCG = test: Post-emergence application in greenhouse trials; format: in vivo, Echinocloa crus-galli; details: B-1 3.12 g ai/ha, growth stage 13, saflufenacil as commercial 342 g/l SC formulation
Procedure: (§1) In the examples below, using the method of S. R. Colby (1967) “Calculating synergistic and antagonistic responses of herbicide combinations”, Weeds 15, p. 22ff., the value E, which is expected if the activity of the individual active compounds is only additive, was calculated.
(§2) [formula] • where • X=percent activity using active herbicide A at an application rate a; • Y=percent activity using active saflufenacil at an application rate b; • E=expected activity (in %) by A+B at application rates a+b.
(§3) If the value found experimentally is higher than the value E calculated according to Colby, a synergistic effect is present.
(§4) The culture containers used were plastic pots containing loamy sand with approximately 3.0% of humus as substrate. The seeds of the test plants were sown separately for each species.
(§5) For the post-emergence treatment, the test plants were grown to a plant height of from 3 to 15 cm, depending on the plant habit, and only then treated with the active compounds which had been suspended or emulsified in water. To this end, the test plants were either sown directly, and grown in the same containers, or they were first grown separately as seedlings and transplanted into the test containers a few days prior to treatment.
(§6) Depending on the species, the plants were kept at 10-25° C. and 20-35° C., respectively.
(§7) The test period extended over 2 to 4 weeks. During this time, the plants were tended and their response to the individual treatments was evaluated.
(§8) Evaluation was carried out using a scale from 0 to 100. 100 means no emergence of the plants, or complete destruction of at least the above-ground parts, and 0 means no damage or normal course of growth. A good herbicidal activity is given at values of at least 70, and very good herbicidal activity is given at values of at least 85.
(§9) Unless indicated otherwise, herbicide A and saflufenacil were formulated (50 g/I) and applied with addition of 1% MSO (methylated seed oil) as adjuvant. In the greenhouse trials, the solvent used was water (200 I/ha).

BRADC = test: Post-emergence application in field trials (Examples 2 and 3); format: in vivo, Brachiaria decumbens; details: growth stage 22-23, height 32-38 cm, B-1 solo 25 g ai/ha, 21 DAT, 1% Dash ® HC
Procedure: as §1, §2, §3
(§10) On field test sites, natural weed infestation or seeded weeds were treated post-emergence of the weeds.
(§11) For the post emergence treatment, the weedy plants were treated as indicated below. The herbicidal compositions were, together with the adjuvant(s) as indicated, suspended or emulsified in water (200 l/ha unless indicated otherwise) as distribution medium and sprayed with commercial flat fan nozzles.
(§12) In the following experiments, the herbicidal activity for the individual herbicidal compositions (solo and mixture applications) was assessed the indicated days after treatment (DAT). The assessments for the damage on undesired weeds caused by the composition was carried out using a scale from 0 to 100%, compared to the untreated control plants. Here, 0 means no damage and 100 means complete destruction of the plants.
(§13) For the post emergence treatment, the weedy plants were treated as indicated below. The herbicidal compositions were, together with the adjuvant(s) as indicated, suspended or emulsified in water (200 I/ha unless indicated otherwise) as distribution medium and sprayed with commercial flat fan nozzles.

KCHSC = test: Post-emergence application in greenhouse trials; format: in vivo, Kochia scoparia; details: growth stage 33, 1% MSO
Procedure: as §1, §2, §3, §4, §5, §6, §7, §8, §9

DIGIN = test: Post-emergence application in field trials (Examples 2 and 3); format: in vivo, Digitaria insularis
Procedure: as §1, §2, §3, §10, §11, §12, §13

[1] = test system: HORVS* (non-PPOi herbicide tolerant); test: as above; format: in vivo, Hordeum vulgare; details: 1% v/v MSO
Procedure: as §1, §2, §3, §10, §11, §12, §13

ELEIN = test: Post-emergence application in greenhouse trials; format: in vivo, Eleusine indica; details: B-1 3.12 g ai/ha, 21 DAT, growth stage 21, saflufenacil as commercial 342 g/l SC formulation
Procedure: as §1, §2, §3, §4
(§14) For the post-emergence treatment, the test plants were grown to a plant height of from 3 to 15 cm, depending on the plant habit, and only then treated with the active compounds which had been suspended or emulsified in water. To this end, the test plants were either sown directly, and grown in the same containers, or they were first grown separately as seedlings and transplanted into the test containers a few days prior to treatment. […]
(§15) The test period extended over 2 to 4 weeks. During this time, the plants were tended and their response to the individual treatments was evaluated. […]

SETVI = test: Post-emergence application in field trials (Examples 2 and 3); format: in vivo, Setaria viridis
Procedure: as §1, §2, §3, §10, §11, §12, §13

COMBE = test: as above; format: in vivo, Commelina benghalensis; details: B-1 25 g ai/ha, 21 DAT, growth stage 11-14, height 2-10 cm, 0.5% MSO
Procedure: as §1, §2, §3, §10, §11
In the following experiments, the herbicidal activity for the individual herbicidal compositions (solo and mixture applications) was assessed the indicated days after treatment (DAT). The assessments for the damage on undesired weeds caused by the composition was carried out using a scale from 0 to 100%, compared to the untreated control plants. […]

CHEAL = test: Post-emergence application in greenhouse trials; format: in vivo, Chenopodium album; details: B-1 3.12 g ai/ha, 21 DAT, growth stage 51, saflufenacil as commercial 342 g/l SC formulation
Procedure: as §1, §2, §3, §4, §14, §15

ERISS = test: Post-emergence application in field trials (Examples 2 and 3); format: in vivo, Erigeron sp.; details: B-1 25 g ai/ha, 14 DAT, height 30-50 cm, 0.5% v/v MSO
Procedure: as §1, §2, §3, §10, §11, §12, §13

[2] = test system: ZEAMX* (non-PPOi herbicide tolerant); test: as above; format: in vivo, Zea mays; details: B-1 25 g ai/ha, 21 DAT
Procedure: as §1, §2, §3, §10, §11, §12, §13

ERICA [3] = test: Post-emergence application in greenhouse trials; format: in vivo, Erigeron canadensis; details: B-1 3.12 g ai/ha, 21 DAT, growth stage 31, saflufenacil as commercial 342 g/l SC formulation
Procedure: as §1, §2, §3, §4, §5, §6, §7, §8, §9

ERICA [4] = test: Post-emergence application in field trials (Examples 2 and 3); format: in vivo, Erigeron canadensis; details: 21 DAT
Procedure: as §1, §2, §3, §10, §11, §12, §13

POAAN = test: as above; format: in vivo, Poa annua
Procedure: as §1, §2, §3, §10, §11, §12, §13

With `CC(C)N(C)S(=O)(=O)NC(=O)c1cc(-n2c(=O)cc(C(F)(F)F)n(C)c2=O)c(F)cc1Cl` [B-1, saflufenacil] the “% Herbicidal activity” value (ECHCG; 7 DAT) was 65%, the “% Herbicidal activity” value (ECHCG; 21 DAT) was 40% and the “% Herbicidal activity” value (BRADC) was 12%. The “% Herbicidal activity” value (KCHSC; B-1 0.2 g ai/ha, 6 DAT) was 15%, the “% Herbicidal activity” value (KCHSC; B-1 0.3 g ai/ha, 6 DAT) was 35% and the “% Herbicidal activity” value (KCHSC; B-1 0.8 g ai/ha, 6 DAT) was 60%. For the same molecule, the “% Herbicidal activity” value (KCHSC; B-1 0.8 g ai/ha, 20 DAT) was 70%, the “% Herbicidal activity” value (KCHSC; B-1 0.9 g ai/ha, 6 DAT) was 60% and the “% Herbicidal activity” value (KCHSC; B-1 1 g ai/ha, 6 DAT) was 80%. For the same molecule, the “% Herbicidal activity” value (KCHSC; B-1 1 g ai/ha, 20 DAT) was 80%, the “% Herbicidal activity” value (DIGIN; B-1 25 g ai/ha, 7 DAT, height 60-80 cm, field, 0.5% v/v MSO) was 8% and the “% Herbicidal activity” value (DIGIN; DIGIN, growth stage 65, height 40-50 cm, B-1 solo 25 g ai/ha, 21 DAT, 1% v/v MSO) was 5%. For the same molecule, the “% Herbicidal activity” value ([1]; B-1 18 g ai/ha, 29 DAT, growth stage 15-24, height 25-45 cm, field, 100 l/ha water) was 0%, the “% Herbicidal activity” value ([1]; HORVS* (non-PPOi herbicide tolerant), growth stage 15, height 31-43 cm, B-1 solo 25 g ai/ha, 16 DAT) was 3% and the “% Herbicidal activity” value (ELEIN) was 30%. The “% Herbicidal activity” value (SETVI; B-1 25 g ai/ha, 19 DAT, growth stage 13-19, height 2.5-10 cm, field, 1% v/v MSO and 1% w/v ammoniumsulfate) was 22%, the “% Herbicidal activity” value (SETVI; SETVI, height 50-61 cm, B-1 solo 25 g ai/ha, 42 DAT, 1% v/v MSO and 2.5% AMSOL ®) was 33% and the “% Herbicidal activity” value (COMBE) was 5%. The “% Herbicidal activity” value (CHEAL) was 85%, the “% Herbicidal activity” value (ERISS) was 63% and the “% Herbicidal activity” value ([2]; growth stage 15, 1% v/v MSO and 1% w/v ammoniumsulfate) was 15%. The “% Herbicidal activity” value ([2]; growth stage 18, 0.5% MSO) was 0%, the “% Herbicidal activity” value (ERICA [3]) was 30% and the “% Herbicidal activity” value (ERICA [4]; B-1 6.25 g ai/ha, height 12.5-25 cm, field, 140 l/ha water, 1% MSO + 2.5% ammoniumsulfate) was 40%. For the same molecule, the “% Herbicidal activity” value (ERICA [4]; B-1 12.5 g ai/ha, height 12.5-25 cm, field, 140 l/ha water, 1% MSO + 2.5% ammoniumsulfate) was 73%, the “% Herbicidal activity” value (ERICA [4]; ERICA, height 5-10 cm, B-1 solo 25 g ai/ha, 1% v/v MSO and 1% AMS (ammonium sulfate)) was 90% and the “% Herbicidal activity” value (POAAN; B-1 12.5 g ai/ha, 21 DAT, growth stage 55-65, height 10-15 cm, field, 140 l/ha water, 1% MSO + 2.5% ammoniumsulfate) was 18%. For the same molecule, the “% Herbicidal activity” value (POAAN; POAAN, height 2.5-4 cm, B-1 solo 25 g ai/ha, 7 DAT, 1% v/v MSO) was 12%.

Source: patent US20250040548A1, “Herbicidal compositions comprising saflufenacil” (BASF SF, priority 2023, published 2025)
